Earlier results, collected in US20240398763A1, “ORAL DOSAGE FORM CONTAINING ONCOLOGICAL ACTIVE INGREDIENT” (OWP Pharmaceuticals, Inc., priority 2023, published 2024).
Values after ≈ are worked out from the molar mass of the structure shown.

conditions: aqueous media, pH 7.4

| Compound | Solubility |
| --- | --- |
| C=C(F)C(=O)N1CCN(c2nc(OC[C@@H]3CCCN3C)nc3c2CCN(c2cccc4cccc(Cl)c24)C3)C[C@@H]1CC#N [adagrasib] | to <0.010 mg/mL |

same assay, conditions: at 25° C.

| Compound | Solubility |
| --- | --- |
| CC(C)(C#N)c1cc(Cn2cncn2)cc(C(C)(C)C#N)c1 [anastrozole, α,α,α′,α′-tetramethyl-5-(1H-1,2,4-triazol-1-ylmethyl)-1,3-benzenediacetonitrile, reference compound] | solubility (0.5 mg/mL |

same assay, conditions: condition not given

| Compound | Solubility [mg/mL] |
| --- | --- |
| CN1CC[C@@H](NC(=O)Nc2ccc(C#N)cc2)C[C@@H]1c1nc2ccccc2[nH]1 [glasdegib] | 1.7 (≈ 4.54 mM) |
| NC(=O)NO [hydroxyurea] | 15 (≈ 197 mM) |

same assay, conditions: in water / aqueous media, in words

| Compound | Solubility |
| --- | --- |
| Cc1nc(Nc2ncc(C(=O)Nc3c(C)cccc3Cl)s2)cc(N2CCN(CCO)CC2)n1 [dasatinib] | insoluble in water |
| COC(=O)N[C@@H](C)CNc1nccc(-c2cn(C(C)C)nc2-c2cc(Cl)cc(NS(C)(=O)=O)c2F)n1 [encorafenib] | slightly soluble at pH 1, |
| O=C(O)CCCc1ccc(N(CCCl)CCCl)cc1 [chlorambucil] | insoluble in water |
| COc1cc(N2CCC(N3CCN(C)CC3)CC2)ccc1Nc1ncc(Cl)c(Nc2ccccc2P(C)(C)=O)n1 [brigatinib] | insoluble in water |
| CN1CCN(c2ccc(C(=O)Nc3n[nH]c4ccc(Cc5cc(F)cc(F)c5)cc34)c(NC3CCOCC3)c2)CC1 [entrectinib] | insoluble in water |
| CS(=O)(=O)c1ccc(Oc2cc(F)cc(C#N)c2)c2c1[C@H](O)[C@H](F)[C@@H]2F [belzutifan] | insoluble in water |
| CN(C)C(=O)c1cc2cnc(Nc3ccc(N4CCNCC4)cn3)nc2n1C1CCCC1 [ribociclib] | insoluble in water |
| Nc1cccc2c1CN(C1CCC(=O)NC1=O)C2=O (stereo not drawn) [lenalidomide] | insoluble in water |
| CN(Cc1cnc2nc(N)nc(N)c2n1)c1ccc(C(=O)N[C@@H](CCC(=O)O)C(=O)O)cc1 [methotrexate] | insoluble in water |
| C1=C/COCc2cc(ccc2OCCN2CCCC2)Nc2nccc(n2)-c2cccc(c2)COC/1 [pacritinib] | insoluble in water |
| O=C(c1cc(Cc2n[nH]c(=O)c3ccccc23)ccc1F)N1CCN(C(=O)C2CC2)CC1 [olaparib] | low solubility |
| O=C(Nc1ccc(OC(F)(F)Cl)cc1)c1cnc(N2CC[C@@H](O)C2)c(-c2ccn[nH]2)c1 [asciminib] | insoluble in water |
| COc1cc2ncnc(Nc3ccc(F)c(Cl)c3)c2cc1NC(=O)/C=C/CN1CCCCC1 [dacomitinib] | insoluble in water |
| CS(=O)(=O)OCCCCOS(C)(=O)=O [busulfan] | insoluble in water |
| CCCCCN(C)CCC(O)(P(=O)(O)O)P(=O)(O)O [ibandronate sodium] | water soluble |
| CN(C)C/C=C/C(=O)Nc1cc2c(Nc3ccc(F)c(Cl)c3)ncnc2cc1O[C@H]1CCOC1 [afatinib] | water soluble |
| CC[C@@]1(O)C(=O)OCc2c1cc1n(c2=O)Cc2cc3c(CN(C)C)c(O)ccc3nc2-1 [topotecan] | water soluble |
| C=C(c1ccc(C(=O)O)cc1)c1cc2c(cc1C)C(C)(C)CCC2(C)C [bexarotene] | insoluble in water |
| Cc1cc(Nc2ncnc3ccc(NC4=NC(C)(C)CO4)cc23)ccc1Oc1ccn2ncnc2c1 [tucatinib] | insoluble in water |
| Sc1ncnc2nc[nH]c12 [mercaptopurine] | insoluble in water |

same assay, conditions: pH 1

| Compound | Solubility [mg/mL at pH 1] |
| --- | --- |
| CS(=O)(=O)c1ccc(C(=O)Nc2ccc(Cl)c(-c3ccccn3)c2)c(Cl)c1 [vismodegib] | 0.99 |

same assay, conditions: pH 1.2

| Compound | Solubility |
| --- | --- |
| C=C(F)C(=O)N1CCN(c2nc(OC[C@@H]3CCCN3C)nc3c2CCN(c2cccc4cccc(Cl)c24)C3)C[C@@H]1CC#N [adagrasib] | from >262 mg/mL |

same assay, conditions: pH 7

| Compound | Solubility [μg/mL at pH 7 and] |
| --- | --- |
| CS(=O)(=O)c1ccc(C(=O)Nc2ccc(Cl)c(-c3ccccn3)c2)c(Cl)c1 [vismodegib] | 0.1 |
